Measurements from article PMC8443589, “Modelling human liver fibrosis in the context of non-alcoholic steatohepatitis using a microphysiological system” (Communications Biology, 2021).

Key:
[1] = test system: liver MPS NASH model (PHH, KC and HSC co-cultures, high fat); experiment: Secreted cytokine/biomarker profile (Luminex, ELISA) of liver MPS NASH model dosed with OCA or ELF; format: cell-based, human
Protocol: Fig. 3 Obeticholic acid and Elafibranor both modulate inflammatory and fibrosis phenotype in liver MPS NASH model and phenotype can additionally be reversed with dietary changes. PHH, KC and HSC co-cultures were cultured in the MPS platform under high fat conditions and dosed with varying concentrations of Obeticholic acid (OCA) and Elafibranor (ELF) QD or vehicle control (control) for 10 days, following an initial 4-day pre-culture phase. a The secreted cytokine profile from liver microtissues was compared by Luminex to determine the effects of each compound on the inflammatory profile of the liver with samples analysed at day 8 and 14 of the culture. Data were normalised by Z-transformation to allow comparison of all analytes and presented as a heatmap. b The expression of fibrosis-associated genes was analysed in total RNA from control, OCA and ELF treated liver microtissues (highest concentration for each compound) using Human Fibrosis RT2 Profiler PCR Arrays. Gene expression changes are expressed as a fold change over control. c Liver microtissues were stained for collagen-type I, α-SMA, nuclei (DAPI - blue), phalloidin (green) and imaged by confocal microscopy. Representative images are shown and scale bars 200 µm. d Staining of microtissue was quantified by measuring total fluorescence intensity throughout individual microtissues, each data point represents an average of all the microtissues imaged within an MPS scaffold (min 8, max 20 microtissues). e PHH, KC and HSC co-cultures were cultured in the MPS platform under high fat or lean conditions for 30 days. Cultures either remained in the same type of media throughout or were switched at day 15 from fat media to lean media (Fat -> Lean). Cell culture medium samples were analysed for the presence of IL-6, f MCP-1, g TIMP-1, which were measured by ELISA. h Microtissues were stained with Oil-Red O to determine fat loading during culture period, total stain was quantified by absorbance at 510 nm. All datapoints shown, either as box-whisker plots highlighting mean and min-max or with error bars highlighting means ± SD. All data from a minimum of three independent cultures; statistical comparisons made to control samples unless other comparison shown.
Soluble biomarkers in cell culture medium from the MPS were analysed by enzyme-linked immunosorbent assay (ELISA); IL-6 was measured by Human IL-6 DuoSet ELISA (R&D Systems); MCP-1 was measured by Human CCL2/MCP-1 DuoSet ELISA (R&D Systems); pro-collagen 1 was measured by Human Pro-Collagen I α1 DuoSet (R&D Systems); TIMP-1 was measured by Human TIMP-1 Quantikine ELISA Kit (R&D Systems); Fibronectin was measured by Human Fibronectin DuoSet ELISA (R&D Systems); YKL-40 was measured by Human Chitinase 3-like 1 Quantikine ELISA Kit (R&D Systems); Albumin secretion was measured by Human Albumin AssayMax™ ELISA kit (Assay Pro, St. Charles, MO). For all assays, the manufacturer’s protocol was followed.
Cytokine profiles in cell culture medium samples were also analysed by Luminex array for determination of 38 analytes in total, consisting of cytokines, chemokines, and growth factors using the MILLIPLEX MAP Human Cytokine/Chemokine Magnetic Bead Panel - Premixed 38 Plex (Merck Millipore, USA).
Liver microtissues were cultured for 4 days in HEP-FAT medium, before dosing with obeticholic acid or elafibranor. Both compounds were dissolved in DMSO, diluted in cell culture medium (final DMSO concentration ≤1%) and added to microtissues during a full medium change every two days and in addition on the intervening days compounds were spiked into the media to increase drug concentration back to desired concentrations. Cultures were maintained in the presence of the compound, for a total of 10 days in the presence or absence of TGFβ.

[2] = Non-specific compound binding: drug recovery in blank liver MPS plates (no cells), LC-MS; format: in vitro ADME; details: blank liver MPS platform/plates, vs input media, read-out: Drug recovery incubation in blank MPS platform (no cells)

recovery at 1 µM [2]: 97%
SMILES: CSc1ccc(C(=O)/C=C/c2cc(C)c(OC(C)(C)C(=O)O)c(C)c2)cc1 [Elafibranor]
inflammatory cytokines, including CXCL1, IL1-Rα, IL-6 and MCP-1 ([1]; 10 days of compound treatment): concentration-dependent decrease
CXCL1 fold change in production compared to control ([1]; ELF 1.3 µM QD, D8): 0.8888
CXCL10 fold change in production compared to control ([1]; ELF 1.3 µM QD, D8): 0.9847
FN1 fold change in production compared to control ([1]; ELF 1.3 µM QD, D8): 0.9865
IL-1RA fold change in production compared to control ([1]; ELF 1.3 µM QD, D8): 0.559
IL-4 fold change in production compared to control ([1]; ELF 1.3 µM QD, D8): 1.264
IL-6 fold change in production compared to control ([1]; ELF 1.3 µM QD, D8): 0.3707
IL-8 fold change in production compared to control ([1]; ELF 1.3 µM QD, D8): 1.017
MCP-1 fold change in production compared to control ([1]; ELF 1.3 µM QD, D8): 1.109
MIP-1a fold change in production compared to control ([1]; ELF 1.3 µM QD, D8): 0.8137
MIP-1b fold change in production compared to control ([1]; ELF 1.3 µM QD, D8): 0.885
TIMP-1 fold change in production compared to control ([1]; ELF 1.3 µM QD, D8): 0.8634
VEGF fold change in production compared to control ([1]; ELF 1.3 µM QD, D8): 0.3678
CXCL1 fold change in production compared to control ([1]; ELF 1.3 µM QD, D14): 0.5791
CXCL10 fold change in production compared to control ([1]; ELF 1.3 µM QD, D14): 0.6755
FN1 fold change in production compared to control ([1]; ELF 1.3 µM QD, D14): 1.109
IL-1RA fold change in production compared to control ([1]; ELF 1.3 µM QD, D14): 0.3482
IL-4 fold change in production compared to control ([1]; ELF 1.3 µM QD, D14): 0.8813
IL-6 fold change in production compared to control ([1]; ELF 1.3 µM QD, D14): 0.3647
IL-8 fold change in production compared to control ([1]; ELF 1.3 µM QD, D14): 0.625
MCP-1 fold change in production compared to control ([1]; ELF 1.3 µM QD, D14): 0.9408
MIP-1a fold change in production compared to control ([1]; ELF 1.3 µM QD, D14): 0.8725
MIP-1b fold change in production compared to control ([1]; ELF 1.3 µM QD, D14): 1.297
TIMP-1 fold change in production compared to control ([1]; ELF 1.3 µM QD, D14): 0.9244
VEGF fold change in production compared to control ([1]; ELF 1.3 µM QD, D14): 0.5658
CXCL1 fold change in production compared to control ([1]; ELF 13 µM QD, D8): 0.7659
CXCL10 fold change in production compared to control ([1]; ELF 13 µM QD, D8): 0.8228
FN1 fold change in production compared to control ([1]; ELF 13 µM QD, D8): 0.9502
IL-1RA fold change in production compared to control ([1]; ELF 13 µM QD, D8): 0.4867
IL-4 fold change in production compared to control ([1]; ELF 13 µM QD, D8): 1.05
IL-6 fold change in production compared to control ([1]; ELF 13 µM QD, D8): 0.3808
IL-8 fold change in production compared to control ([1]; ELF 13 µM QD, D8): 0.9446
MCP-1 fold change in production compared to control ([1]; ELF 13 µM QD, D8): 0.8534
MIP-1a fold change in production compared to control ([1]; ELF 13 µM QD, D8): 0.3878
MIP-1b fold change in production compared to control ([1]; ELF 13 µM QD, D8): 0.4913
TIMP-1 fold change in production compared to control ([1]; ELF 13 µM QD, D8): 0.6879
VEGF fold change in production compared to control ([1]; ELF 13 µM QD, D8): 0.494
CXCL1 fold change in production compared to control ([1]; ELF 13 µM QD, D14): 0.5325
CXCL10 fold change in production compared to control ([1]; ELF 13 µM QD, D14): 0.6314
FN1 fold change in production compared to control ([1]; ELF 13 µM QD, D14): 0.9442
IL-1RA fold change in production compared to control ([1]; ELF 13 µM QD, D14): 0.3167
IL-4 fold change in production compared to control ([1]; ELF 13 µM QD, D14): 1.0405
IL-6 fold change in production compared to control ([1]; ELF 13 µM QD, D14): 0.4596
IL-8 fold change in production compared to control ([1]; ELF 13 µM QD, D14): 0.6408
MCP-1 fold change in production compared to control ([1]; ELF 13 µM QD, D14): 0.5
MIP-1a fold change in production compared to control ([1]; ELF 13 µM QD, D14): 0.4932
MIP-1b fold change in production compared to control ([1]; ELF 13 µM QD, D14): 0.6533
TIMP-1 fold change in production compared to control ([1]; ELF 13 µM QD, D14): 0.6384
VEGF fold change in production compared to control ([1]; ELF 13 µM QD, D14): 1.282
CXCL1 fold change in production compared to control ([1]; ELF 65 µM QD, D8): 0.4476
CXCL10 fold change in production compared to control ([1]; ELF 65 µM QD, D8): 0.3212
FN1 fold change in production compared to control ([1]; ELF 65 µM QD, D8): 0.8989
IL-1RA fold change in production compared to control ([1]; ELF 65 µM QD, D8): 0.1707
IL-4 fold change in production compared to control ([1]; ELF 65 µM QD, D8): 0.5412
IL-6 fold change in production compared to control ([1]; ELF 65 µM QD, D8): 0.2914
IL-8 fold change in production compared to control ([1]; ELF 65 µM QD, D8): 0.5667
MCP-1 fold change in production compared to control ([1]; ELF 65 µM QD, D8): 0.402
MIP-1a fold change in production compared to control ([1]; ELF 65 µM QD, D8): 0.2899
MIP-1b fold change in production compared to control ([1]; ELF 65 µM QD, D8): 0.5458
TIMP-1 fold change in production compared to control ([1]; ELF 65 µM QD, D8): 0.784
VEGF fold change in production compared to control ([1]; ELF 65 µM QD, D8): 0.6076
CXCL1 fold change in production compared to control ([1]; ELF 65 µM QD, D14): 0.3166
CXCL10 fold change in production compared to control ([1]; ELF 65 µM QD, D14): 0.3403
FN1 fold change in production compared to control ([1]; ELF 65 µM QD, D14): 0.7375
IL-1RA fold change in production compared to control ([1]; ELF 65 µM QD, D14): 0.07012
IL-4 fold change in production compared to control ([1]; ELF 65 µM QD, D14): 0.3173
IL-6 fold change in production compared to control ([1]; ELF 65 µM QD, D14): 0.09996
IL-8 fold change in production compared to control ([1]; ELF 65 µM QD, D14): 0.4914
MCP-1 fold change in production compared to control ([1]; ELF 65 µM QD, D14): 0.1355
MIP-1a fold change in production compared to control ([1]; ELF 65 µM QD, D14): 0.3265
MIP-1b fold change in production compared to control ([1]; ELF 65 µM QD, D14): 0.1355
TIMP-1 fold change in production compared to control ([1]; ELF 65 µM QD, D14): 0.5288
VEGF fold change in production compared to control ([1]; ELF 65 µM QD, D14): 1.5699
